Experimental data reported in patent publication US6569229B1, “Low-freezing point formulation containing phenol derivatives” (Omya AG, priority 1998, dated 2003).

Assays:
[1] = pH of the preserved slurry or coolant; type: physicochemical
aerobic mesophilic germs = experiment: Germ count (determination of aerobic mesophilic germs) in preserved slurry or coolant; type: cell-based, pseudomonads (predominantly Pesudomonas aeruginosa)
Protocol: The germ count was determined according to the method “Determination of aerobic mesophilic germs”, Schweizerisches Lebensmittelbuch, chapter 56, paragraph 7.01, 1985 edition, revised version 1988. Mostly, the bacterial strains detected were from the family of pseudomonads (predominantly Pesudomonas aeruginosa).

[2] = Solubility / miscibility in water and attainable concentration; type: physicochemical; conditions: NaOH as neutralizing agent, room temperature; higher concentrations impossible or recrystallized during storage
[3] = cited from earlier work
[4] = Brookfield viscosity of the preserved pigment slurry; type: physicochemical
Protocol: Measurement of the viscosity was performed on a Brookfield viscosimeter type PVF-100 at 100 rpm. The following spindles were used for the individual measurements:
The measurement was carried out in a low 400 ml beaker.
The temperature during the measurement was 20° C. The measurement was performed after 1 min of stirring.
Prior to the actual measurements, all samples were stirred intensively for 2 min (5000 rpm, stirring disc diameter 50 mm).
This type of viscosity measurement was used in all of the following examples.

Oc1ccccc1-c1ccccc1 [o-phenylphenol]
pH of coolant ([1]; 5% oil in water coolant emulsion, 2 kg actives/t, added as 50% solution (Example 13), blank 6.9): 7.0 | pH of slurry ([1]; calcium carbonate slurry 77.8% solids, 250 g actives/t, added according to example 8, 47.5% solution (Example 11), blank 9.6): 9.5 | pH of slurry ([1]; calcium carbonate slurry 77.8% solids, 250 g actives/t, added as solution of example 2 (Example 4, prior art), blank 9.6): 10.2 | pH of slurry ([1]; kaolin slurry 72.8% solids, 300 g actives/t, added as solution of example 1 (Example 3, prior art), blank 7.4): 8.1 | pH of slurry ([1]; kaolin slurry 72.8% solids, 300 g actives/t, added as solution of example 7 (Example 10), blank 7.4): 7.4 | pH of slurry ([1]; talc slurry 64.2% solids, 350 g actives/t, added as 30% solution of example 9 (Example 12), blank 10.1): 10.2 | germ count after 24 hrs (aerobic mesophilic germs; 5% oil in water coolant emulsion, 2 kg actives/t, added as 50% solution (Example 13), blank 10^7/g): < 100 g⁻¹ | germ count after 24 hrs (aerobic mesophilic germs; calcium carbonate slurry, 250 g actives/t, added according to example 8, 47.5% solution (Example 11), blank 10^6/g): < 100 g⁻¹ | germ count after 24 hrs (aerobic mesophilic germs; calcium carbonate slurry, 250 g actives/t, added as solution of example 2 (Example 4), blank 10^5/g): < 100 g⁻¹ | germ count after 24 hrs (aerobic mesophilic germs; kaolin slurry, 300 g actives/t, added as solution of example 1 (Example 3), blank 10^5/g): < 100 g⁻¹ | germ count after 24 hrs (aerobic mesophilic germs; kaolin slurry, 300 g actives/t, added as solution of example 7 (Example 10), blank 10^5/g): < 100 g⁻¹ | germ count after 24 hrs (aerobic mesophilic germs; talc slurry, 350 g actives/t, added as 30% solution of example 9 (Example 12), blank 10^5/g): < 100 g⁻¹ | attainable concentration of o-phenylphenol solution [2]: ≤ 20 % by wt. | solubility in water [3]: almost insoluble in water | water miscibility ([3]; o-phenylphenol in monopropylene glycol): not water miscible | Brookfield viscosity spindle 3, 100 rpm after preparation ([4]; calcium carbonate slurry 77.8% solids, 250 g actives/t, added according to example 8, 47.5% solution (Example 11), blank 340): 350 mPas | Brookfield viscosity spindle 3, 100 rpm after 1 week ([4]; calcium carbonate slurry 77.8% solids, 250 g actives/t, added according to example 8, 47.5% solution (Example 11), blank 350): 380 mPas | Brookfield viscosity spindle 3, 100 rpm after preparation ([4]; calcium carbonate slurry 77.8% solids, 250 g actives/t, added as solution of example 2 (Example 4), blank 340): 320 mPas | Brookfield viscosity spindle 3, 100 rpm after 1 week ([4]; calcium carbonate slurry 77.8% solids, 250 g actives/t, added as solution of example 2 (Example 4), blank 350): 460 mPas | Brookfield viscosity spindle 3, 100 rpm after preparation ([4]; kaolin slurry 72.8% solids, 300 g actives/t, added as solution of example 1 (Example 3), blank 240): 310 mPas | Brookfield viscosity spindle 3, 100 rpm after 1 week ([4]; kaolin slurry 72.8% solids, 300 g actives/t, added as solution of example 1 (Example 3), blank 330): 760 mPas | Brookfield viscosity spindle 3, 100 rpm after preparation ([4]; kaolin slurry 72.8% solids, 300 g actives/t, added as solution of example 7 (Example 10), blank 240): 250 mPas | Brookfield viscosity spindle 3, 100 rpm after 1 week ([4]; kaolin slurry 72.8% solids, 300 g actives/t, added as solution of example 7 (Example 10), blank 330): 350 mPas | Brookfield viscosity spindle 3, 100 rpm after preparation ([4]; talc slurry 64.2% solids, 350 g actives/t, added as 30% solution of example 9 (Example 12), blank 320): 320 mPas | Brookfield viscosity spindle 3, 100 rpm after 1 week ([4]; talc slurry 64.2% solids, 350 g actives/t, added as 30% solution of example 9 (Example 12), blank 480): 540 mPas
